Test results from patent publication US10730863B2, “Bridged bicyclic compounds as farnesoid X receptor modulators” (BRISTOL-MYERS SQUIBB COMPANY, priority 2017, dated 2020).

molecular target: FXR (Homo sapiens (Human), UniProt Q96RI1); experiment: FXR EC50 (FXR agonist activity reported with each example); assay type: cell-based
Sequence (Q96RI1 262-486): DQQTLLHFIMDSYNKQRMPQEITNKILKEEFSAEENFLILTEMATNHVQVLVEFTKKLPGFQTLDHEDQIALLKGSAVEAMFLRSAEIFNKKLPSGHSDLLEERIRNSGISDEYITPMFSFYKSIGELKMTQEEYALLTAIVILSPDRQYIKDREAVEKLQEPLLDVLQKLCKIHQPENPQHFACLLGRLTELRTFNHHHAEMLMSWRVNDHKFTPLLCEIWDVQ

Structure (SMILES)	EC50 [µM]
Cc1cc(OCC23CCC(OCc4c(-c5c(Cl)cncc5Cl)noc4C4CC4)(CC2)CC3)cc(C(=O)O)c1 [Example 322]	0.007
COc1cc(OCC23CCC(OCc4c(-c5c(Cl)cncc5Cl)noc4C4CC4)(CC2)CC3)nc(C(=O)O)c1 [Example 323]	0.074
O=C(O)c1cc(C2CC2)c2cc(OCC34CCC(OCc5c(-c6c(Cl)cncc6Cl)noc5C5CC5)(CC3)CC4)ccc2n1 [Example 324, 4-cyclopropyl-6-((4-((5-cyclopropyl-3-(3,5-dichloropyridin-4-yl)isoxazol-4-yl)methoxy)bicyclo[2.2.2]octan-1-yl)methoxy)quinoline-2-carboxylic acid]	0.022
Cc1cc(C(=O)O)nc2ccc(OCC34CCC(OCc5c(-c6c(Cl)cncc6Cl)noc5C5CC5)(CC3)CC4)cc12 [Example 325]	0.052
CC(C)Oc1cc(OCC23CCC(OCc4c(-c5c(Cl)cncc5Cl)noc4C4CC4)(CC2)CC3)cc(C(=O)O)c1 [Example 326]	0.017
O=C(O)c1cc(O)c2cc(OCC34CCC(OCc5c(-c6c(Cl)cncc6Cl)noc5C5CC5)(CC3)CC4)ccc2n1 [Example 327, 6-((4-((5-cyclopropyl-3-(3,5-dichloropyridin-4-yl)isoxazol-4-yl)methoxy)bicyclo[2.2.2]octan-1-yl)methoxy)-4-hydroxyquinoline-2-carboxylic acid]	0.17
CC(C)Oc1cc(C(=O)O)nc2ccc(OCC34CCC(OCc5c(-c6c(Cl)cncc6Cl)noc5C5CC5)(CC3)CC4)cc12 [Example 328, 6-((4-((5-cyclopropyl-3-(3,5-dichloropyridin-4-yl)isoxazol-4-yl)methoxy)bicyclo[2.2.2]octan-1-yl)methoxy)-4-isopropoxyquinoline-2-carboxylic acid]	0.015
COC1CN(c2cc(C(=O)O)nc3ccc(OCC45CCC(OCc6c(-c7c(Cl)cncc7Cl)noc6C6CC6)(CC4)CC5)cc23)C1 [Example 329, 6-((4-((5-cyclopropyl-3-(3,5-dichloropyridin-4-yl)isoxazol-4-yl)methoxy)bicyclo[2.2.2]octan-1-yl)methoxy)-4-(3-methoxyazetidin-1-yl)quinoline-2-carboxylic acid]	1.4
CN(C)c1cc(C(=O)O)nc2ccc(OCC34CCC(OCc5c(-c6c(Cl)cncc6Cl)noc5C5CC5)(CC3)CC4)cc12 [Example 330]	1.5
O=C(O)c1cc(OC2CC2)c2cc(OCC34CCC(OCc5c(-c6c(Cl)cncc6Cl)noc5C5CC5)(CC3)CC4)ccc2n1 [Example 331, 4-cyclopropoxy-6-((4-((5-cyclopropyl-3-(3,5-dichloropyridin-4-yl)isoxazol-4-yl)methoxy)bicyclo[2.2.2]octan-1-yl)methoxy)quinoline-2-carboxylic acid]	0.023
CS(=O)(=O)c1cc(C(=O)O)nc2ccc(OCC34CCC(OCc5c(-c6c(Cl)cncc6Cl)noc5C5CC5)(CC3)CC4)cc12 [Example 332, 6-((4-((5-cyclopropyl-3-(3,5-dichloropyridin-4-yl)isoxazol-4-yl)methoxy)bicyclo[2.2.2]octan-1-yl)methoxy)-4-(methylsulfonyl)quinoline-2-carboxylic acid]	0.83
CC(C)Oc1cc(OCC23CCC(OCc4c(-c5c(Cl)cncc5Cl)noc4C4CC4)(CC2)CC3)cnc1C(=O)O [Example 334, 5-((4-((5-cyclopropyl-3-(3,5-dichloropyridin-4-yl)isoxazol-4-yl)methoxy)bicyclo[2.2.2]octan-1-yl)methoxy)-3-isopropoxypicolinic acid]	0.021
COc1cc(OCC23CCC(OCc4c(-c5c(Cl)cncc5Cl)noc4C4CC4)(CC2)CC3)cnc1C(=O)O [Example 335, 5-((4-((5-cyclopropyl-3-(3,5-dichloropyridin-4-yl)isoxazol-4-yl)methoxy)bicyclo[2.2.2]octan-1-yl)methoxy)-3-methoxypicolinic acid]	0.17
COCCOc1cc(OCC23CCC(OCc4c(-c5c(Cl)cncc5Cl)noc4C4CC4)(CC2)CC3)cnc1C(=O)O [Example 336]	0.16
O=C(O)c1ncc(OCC23CCC(OCc4c(-c5c(Cl)cncc5Cl)noc4C4CC4)(CC2)CC3)cc1OCC1CC1 [Example 337]	0.027
CCCc1cc(C(=O)O)nc2ccc(OCC34CCC(OCc5c(-c6c(Cl)cncc6Cl)noc5C5CC5)(CC3)CC4)cc12 [Example 338, 6-((4-((5-cyclopropyl-3-(3,5-dichloropyridin-4-yl)isoxazol-4-yl)methoxy)bicyclo[2.2.2]octan-1-yl)methoxy)-4-propylquinoline-2-carboxylic acid]	0.017
O=C(O)c1ncc(OCC23CCC(OCc4c(-c5c(Cl)cncc5Cl)noc4C4CC4)(CC2)CC3)cc1OC1CCC1 [Example 339]	0.028
O=C(O)c1ncc(OCC23CCC(OCc4c(-c5c(Cl)cncc5Cl)noc4C4CC4)(CC2)CC3)cc1OC1CC1 [Example 340]	0.046
CC(Oc1ccc(OCC23CCC(OCc4c(-c5c(Cl)cncc5Cl)noc4C4CC4)(CC2)CC3)cc1)C(=O)O (centres unmarked) [Example 341]	1.5
COc1ccc(C(=O)O)c2ccc(OCC34CCC(OCc5c(-c6c(Cl)cncc6Cl)noc5C5CC5)(CC3)CC4)nc12 [Example 342]	0.033
O=C(O)c1cccc2nc(OCC34CCC(OCc5c(-c6c(Cl)cncc6Cl)noc5C5CC5)(CC3)CC4)ccc12 [Example 343]	0.075
O=C(O)c1cc(OC2CCC2)c2cc(OCC34CCC(OCc5c(-c6c(Cl)cncc6Cl)noc5C5CC5)(CC3)CC4)ccc2n1 [Example 344]	0.017
CCOc1cc(C(=O)O)nc2ccc(OCC34CCC(OCc5c(-c6c(Cl)cncc6Cl)noc5C5CC5)(CC3)CC4)cc12 [Example 345]	0.014
O=C(O)c1cc(OCC2CC2)c2cc(OCC34CCC(OCc5c(-c6c(Cl)cncc6Cl)noc5C5CC5)(CC3)CC4)ccc2n1 [Example 346]	0.018
CCc1cc(C(=O)O)nc2ccc(OCC34CCC(OCc5c(-c6c(Cl)cncc6Cl)noc5C5CC5)(CC3)CC4)cc12 [Example 347]	0.024
Cc1cc(OCC23CCC(OCc4c(-c5c(Cl)cncc5Cl)noc4C4CC4)(CC2)CC3)cnc1C(=O)O [Example 348, 5-((4-((5-cyclopropyl-3-(3,5-dichloropyridin-4-yl)isoxazol-4-yl)methoxy)bicyclo[2.2.2]octan-1-yl)methoxy)-3-methylpicolinic acid]	0.059
O=C(O)c1ccc(OC2CCC2)c2nc(OCC34CCC(OCc5c(-c6c(Cl)cncc6Cl)noc5C5CC5)(CC3)CC4)ccc12 [Example 349, 8-cyclobutoxy-2-((4-((5-cyclopropyl-3-(3,5-dichloropyridin-4-yl)isoxazol-4-yl)methoxy)bicyclo[2.2.2]octan-1-yl)methoxy)quinoline-5-carboxylic acid]	0.13
COc1cncc(Cl)c1-c1noc(C2CC2)c1COC12CCC(COc3cc(OC)c4cc(C(=O)O)ccc4n3)(CC1)CC2 [Example 350, 2-((4-((3-(3-chloro-5-methoxypyridin-4-yl)-5-cyclopropylisoxazol-4-yl)methoxy)bicyclo[2.2.2]octan-1-yl)methoxy)-4-methoxyquinoline-6-carboxylic acid]	0.89
COc1cncc(Cl)c1-c1noc(C2CC2)c1COC12CCC(COc3ccc4cc(C(=O)O)cc(C5CC5)c4n3)(CC1)CC2 [Example 351, 2-((4-((3-(3-chloro-5-methoxypyridin-4-yl)-5-cyclopropylisoxazol-4-yl)methoxy)bicyclo[2.2.2]octan-1-yl)methoxy)-8-cyclopropylquinoline-6-carboxylic acid]	0.023
